# Where a name gives a salt, the structure may show the parent alone.
# Target: T1, Syk tyrosine kinase (Homo sapiens, UniProt P43405)
# T1 construct: purchased Carna Biosciences, Inc
# Assay: Test for Syk tyrosine kinase inhibitory activity (ELISA)
# Assay type: biochemical
# Conditions: Syk tyrosine kinase (Carna Biosciences), 25 μM ATP in substrate solution, 30° C. 1 hour, n=2; read-out: Evaluation (IC50, concentration inhibiting the tyrosine kinase activity at 50%)
# Method in brief: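 Syk kinase (0.025 nM stock before addition) with 625 nM biotinylated peptide and 25 μM ATP (substrate-solution levels) in Tris pH 7.5, MgCl2, DTT; 1 h at 30 °C on streptavidin plates. Phosphotyrosine detected by HRP anti-pTyr antibody, TMB, A450; IC50 by non-linear regression.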
row,Structure (SMILES),IC50 [nM]
1,"N#Cc1ccnc(Nc2cc(C3CC3)cc(-c3ccc(CN4CCS(=O)(=O)CC4)nc3)n2)c1 [Example 72, 2-({4-cyclopropyl-6′-[(1,1-dioxidethiomorpholin-4-yl)methyl]-2,3′-bipyridin-6-yl}amino)pyridine-4-carbonitrile hydrochloride]",5 to 50
2,"N#Cc1ccnc(Nc2cc(C3CC3)cc(-c3cncc(CN4CCNC(=O)C4)c3)n2)c1 [Example 73, 2-({4-cyclopropyl-5′-[(3-oxopiperazin-1-yl)methyl]-2,3′-bipyridin-6-yl}amino)pyridine-4-carbonitrile hydrochloride]",5 to 50
3,"N#Cc1ccnc(Nc2cc(C3CC3)cc(-c3cncc(CN4CCS(=O)(=O)CC4)c3)n2)c1 [Example 74, 2-({4-cyclopropyl-5′-[(1,1-dioxidethiomorpholin-4-yl)methyl]-2,3′-bipyridin-6-yl}amino)pyridine-4-carbonitrile hydrochloride]",5 to 50
4,"N#Cc1ccnc(Nc2cc(C3CC3)cc(-c3cncc(CN4CCCN(C(N)=O)CC4)c3)n2)c1 [Example 75, 4-({6-[(4-cyanopyridin-2-yl)amino]-4-cyclopropyl-2,3′-bipyridin-5′yl}methyl)-1,4-diazepane-1-carboxamide hydrochloride]",5 to 50
5,"N#Cc1ccnc(Nc2cc(C3CC3)cc(-c3ccnc(N4CCCN(C(N)=O)CC4)c3)n2)c1 [Example 76, 4-{6-[(4-cyanopyridin-2-yl)amino]-4-cyclopropyl-2,4′-bipyridin-2′-yl}-1,4-diazepane-1-carboxamide hydrochloride]",5 to 50
6,"N#Cc1ccnc(Nc2cc(C3CC3)cc(-c3cncc(NC4CCN(C(N)=O)CC4)c3)n2)c1 [Example 77, 4-({6-[(4-cyanopyridin-2-yl)amino]-4-cyclopropyl-2,3′-bipyridin-5′-yl}amino)piperidine-1-carboxamide hydrochloride]",5 to 50
7,"N#Cc1ccnc(Nc2cc(C3CC3)cc(-c3cccc(N4CCCN(C(N)=O)CC4)c3)n2)c1 [Example 78, 4-(3-{6-[(4-cyanopyridin-2-yl)amino]-4-cyclopropylpyridin-2-yl}phenyl)-1,4-diazepane-1-carboxamide hydrochloride]",5 to 50
8,"N#Cc1ccnc(Nc2cc(C3CC3)cc(-c3cccc(CN4CCNC(=O)C4)c3)n2)c1 [Example 79, 2-[(4-cyclopropyl-6-{3-[(3-oxopiperazin-1-yl)methyl]phenyl}pyridin-2-yl)amino]pyridine-4-carbonitrile hydrochloride]",5 to 50
9,"N#Cc1ccnc(Nc2cc(C3CC3)cc(-c3ccc(CN4CCNC(=O)C4)cc3)n2)c1 [Example 80, 2-[(4-cyclopropyl-6-{4-[(3-oxopiperazin-1-yl)methyl]phenyl}pyridin-2-yl)amino]pyridine-4-carbonitrile hydrochloride]",50 to 500
10,"N#Cc1ccnc(Nc2cc(C3CC3)cc(-c3cncc(CN4CCNCC4)c3)n2)c1 [Example 81, 2-{[4-cyclopropyl-5′-(piperazin-1-ylmethyl)-2,3′-bipyridin-6-yl]amino}pyridine-4-carbonitrile hydrochloride]",5 to 50
11,"CC(=O)N1CCN(Cc2cncc(-c3cc(C4CC4)cc(Nc4cc(C#N)ccn4)n3)c2)CC1 [Example 82, 2-({5′-[(4-acetylpiperazin-1-yl)methyl]-4-cyclopropyl-2,3′-bipyridin-6-yl}amino)pyridine-4-carbonitrile hydrochloride]",50 to 500
12,"N#Cc1ccnc(Nc2cc(C3CC3)cc(-c3cncc(CN4CCN(C(N)=O)CC4)c3)n2)c1 [Example 83, 4-({6-[(4-cyanopyridin-2-yl)amino]-4-cyclopropyl-2,3′-bipyridin-5′-yl}methyl)piperazine-1-carboxamide hydrochloride]",5 to 50
13,"N#Cc1ccnc(Nc2cc(C3CC3)cc(-c3cccc(CN4CCNCC4)c3)n2)c1 [Example 84, 2-({4-cyclopropyl-6-[3-(piperazin-1-ylmethyl)phenyl]pyridin-2-yl}amino)pyridine-4-carbonitrile hydrochloride]",< 5
14,"N#Cc1ccnc(Nc2cc(C3CC3)cc(-c3cncc(NC4CCNCC4)c3)n2)c1 [Example 85, 2-{[4-cyclopropyl-5′-(piperidin-4-ylamino)-2,3′-bipyridin-6-yl]amino}pyridine-4-carbonitrile hydrochloride]",< 5
15,"N#Cc1ccnc(Nc2cc(C3CC3)cc(-c3ccnc(CN4CCNCC4)c3)n2)c1 [Example 86, 2-{[4-cyclopropyl-2′-(piperazin-1-ylmethyl)-2,4′-bipyridin-6-yl]amino}pyridine-4-carbonitrile hydrochloride]",5 to 50
16,"N#Cc1ccnc(Nc2cc(C3CC3)cc(-c3ccnc(CN4CCNC(=O)C4)c3)n2)c1 [Example 87, 2-({4-cyclopropyl-2′-[(3-oxopiperazin-1-yl)methyl]-2,4′-bipyridin-6-yl}amino)pyridine-4-carbonitrile hydrochloride]",5 to 50
17,"N#Cc1ccnc(Nc2cc(C3CC3)cc(-c3cncc(N[C@@H]4CCNC4)c3)n2)c1 [Example 88, 2-({4-cyclopropyl-5′-[(3R)-pyrrolidin-3-ylamino]-2,3′-bipyridin-6-yl}amino)pyridine-4-carbonitrile hydrochloride]",< 5

row,Structure (SMILES),IC50 [nM]
1,"N#Cc1ccnc(Nc2cc(C3CC3)cc(-c3cncc(N[C@H]4CCNC4)c3)n2)c1 [Example 89, 2-{(4-cyclopropyl-5′-[(3S)-pyrrolidin-3-ylamino]-2,3′-bipyridin-6-yl}amino)pyridine-4-carbonitrile hydrochloride]",< 5
2,"N#Cc1ccnc(Nc2cc(C3CC3)cc(-c3cncc(NCCN)c3)n2)c1 [Example 90, 2-({5′-[(2-aminoethyl)amino]-4-cyclopropyl-2,3′-bipyridin-6-yl}amino)pyridine-4-carbonitrile hydrochloride]",< 5
3,"N#Cc1ccnc(Nc2cc(C3CC3)cc(-c3cncc(COC4CCNCC4)c3)n2)c1 [Example 91, 2-({4-cyclopropyl-5′-[(piperidin-4-yloxy)methyl]-2,3′-bipyridin-6-yl}amino)pyridine-4-carbonitrile hydrochloride]",< 5
4,"CN(Cc1cncc(-c2cc(C3CC3)cc(Nc3cc(C#N)ccn3)n2)c1)C1CCNCC1 [Example 92, 2-[(4-cyclopropyl-5′-{[N-methyl-N-(piperidin-4-yl)amino]methyl}-2,3′-bipyridin-6-yl)amino]pyridine-4-carbonitrile hydrochloride]",< 5
5,"N#Cc1ccnc(Nc2cc(C3CC3)cc(-c3cncc(CNC4CCNCC4)c3)n2)c1 [Example 93, 2-({4-cyclopropyl-5′-[(piperidin-4-ylamino)methyl]-2,3′-bipyridine-6-yl}amino)pyridine-4-carbonitrile hydrochloride]",5 to 50
6,"N#Cc1ccnc(Nc2cc(C3CC3)cc(-c3cncc(NCC4CCNCC4)c3)n2)c1 [Example 94, 2-({4-cyclopropyl-5′-[(piperidin-4-ylmethyl)amino]-2,3′-bipyridin-6-yl}amino)pyridine-4-carbonitrile hydrochloride]",5 to 50
7,"N#Cc1ccnc(Nc2cc(C3CC3)cc(-c3cncc(NC4CNC4)c3)n2)c1 [Example 95, 2-{[5′-(azetidin-3-ylamino)-4-cyclopropyl-2,3′-bipyridin-6-yl]amino}pyridine-4-carbonitrile hydrochloride]",< 5
8,"N#Cc1ccnc(Nc2cc(C3CC3)cc(-c3cncc(OC4CCNCC4)c3)n2)c1 [Example 96, 2-([4-cyclopropyl-5′-(piperidin-4-yloxy)-2,3′-bipyridin-6-yl]amino)pyridine-4-carbonitrile hydrochloride]",< 5
9,"N#Cc1ccnc(Nc2cc(C3CC3)cc(-c3cncc(NC[C@H]4CCNC4)c3)n2)c1 [Example 97, 2-[(4-cyclopropyl-5′-{[(3S)-pyrrolidin-3-ylmethyl]amino}-2,3′-bipyridin-6-yl)amino]pyridine-4-carbonitrile hydrochloride]",< 5
10,"N#Cc1ccnc(Nc2cc(C3CC3)cc(-c3cncc(N4CCCNCC4)c3)n2)c1 [Example 98, 2-{[4-cyclopropyl-5′-(1,4-diazepan-1-yl)-2,3′-bipyridin-6-yl]amino}pyridine-4-carbonitrile hydrochloride]",< 5
11,"CN1CCC(Oc2cncc(-c3cc(C4CC4)cc(Nc4cc(C#N)ccn4)n3)c2)CC1 [Example 99, 2-({4-cyclopropyl-5′-[(1-methylpiperidin-4-yl)oxy]-2,3′-bipyridin-6-yl}amino)pyridine-4-carbonitrile hydrochloride]",< 5
12,"N#Cc1ccnc(Nc2cc(C3CC3)cc(-c3cncc(OCCN4CCNCC4)c3)n2)c1 [Example 100, 2-({4-cyclopropyl-5′-[2-(piperazin-1-yl)ethoxy]-2,3′-bipyridin-6-yl}amino)pyridine-4-carbonitrile hydrochloride]",5 to 50
13,"N#Cc1ccnc(Nc2cc(C3CC3)cc(-c3cncc(OCCN4CCOCC4)c3)n2)c1 [Example 101, 2-({4-cyclopropyl-5′-[2-(morpholin-4-yl)ethoxy]-2,3′-bipyridin-6-yl}amino)pyridine-4-carbonitrile hydrochloride]",50 to 500
14,"N#Cc1ccnc(Nc2cc(C3CC3)cc(-c3cncc(OC4CNC4)c3)n2)c1 [Example 102, 2-{[5′-(azetidin-3-yloxy)-4-cyclopropyl-2,3′-bipyridin-6-yl]amino}pyridine-4-carbonitrile hydrochloride]",5 to 50
15,"N#Cc1ccnc(Nc2cc(C3CC3)cc(-c3cncc(OC4CCN(CC(N)=O)CC4)c3)n2)c1 [Example 103, 2-[4-({6-[(4-cyanopyridin-2-yl)amino]-4-cyclopropyl-2,3′-bipyridin-5′-yl}oxy)-piperidin-1-yl]acetamide hydrochloride]",5 to 50
16,"N#Cc1ccnc(Nc2cc(C3CC3)cc(-c3cncc(OC4CCN(C(N)=O)CC4)c3)n2)c1 [Example 104, 4-({6-[(4-cyanopyridin-2-yl)amino]-4-cyclopropyl-2,3′-pypyridin-5′-yl}oxy)piperidine-1-carboxamide hydrochloride]",5 to 50

# From patent publication US20130225548A1, “Pyridine Derivative and Medicinal Agent” (NIPPON SHINYAKU CO., LTD., priority 2010, published 2013)
